Assay results as given in patent US20050124554A1, “Spermidine derivatives for the treatment of chronic neurodegenerative diseases” (priority 2002, published 2005).

Experiments:
[1] = previous studies, WO99/31049; cited from earlier work
[2] = system: organotypic hippocampal slice cultures (CA1 pyramidal cell layer); experiment: Free-radical mediated injury (duroquinone), cell death by PI fluorescence; type: cell-based, Wistar rat; settings: 100 μM duroquinone 3 h; 300 μM compound
Description: Organotypic hippocampal slice cultures were prepared according to established methods (Pringle et al. (1997), Brain Res., 755, 36-46). In brief, Wistar rat pups (8-11 days old) were decapitated and the hippocampus rapidly dissected into ice-cold Gey's balanced salt solution (Gibco Life Technologies, Paisley, UK) supplemented with 4.5 mg ml^−1 glucose. Slices were separated and plated onto Millicell CM culture inserts (4 per well) and maintained at 37° C. and 5% CO2 for 14 days. […]
Free-radical mediated injury was performed as described previously with L-Arg3,4 present pre-, during, and post-injury in treated cultures (Wilde et al. (1997, J. Neurochem., 69, 883-886). Briefly, cultures were transferred to SFM+PI with or without 300 μM L-Arg3,4 and allowed to equilibrate for 30 min prior to imaging. Any cultures in which PI fluorescence was detected at this stage were excluded from further study. Duroquinone (DQ) was dissolved in DMSO at a stock concentration of 100 mM which was then diluted 1:1000 in SFM for a final working concentration of 100 μM (final DMSO concentration of 0.1%). […]
Neuronal damage was assessed as described previously (Pringle et al. (1996), Stroke, 27, 2124-2130; Pringle et al. (1997), Brain Res., 755, 36-46). Light transmission images were captured prior to the induction of injury, and PI fluorescence images recorded at the end of the 24 h post-injury recovery period. […]

[3] = system: organotypic hippocampal slice cultures (CA1 or CA3 pyramidal cell layer); experiment: Excitotoxic injury by glutamate receptor agonists, cell death by PI fluorescence; type: cell-based, Wistar rat; settings: for protection: 300 μM
Description: Organotypic hippocampal slice cultures were prepared according to established methods (Pringle et al. (1997), Brain Res., 755, 36-46). In brief, Wistar rat pups (8-11 days old) were decapitated and the hippocampus rapidly dissected into ice-cold Gey's balanced salt solution (Gibco Life Technologies, Paisley, UK) supplemented with 4.5 mg ml^−1 glucose. Slices were separated and plated onto Millicell CM culture inserts (4 per well) and maintained at 37° C. and 5% CO2 for 14 days. Maintenance medium consisted of 25% heat-inactivated horse serum, 25% Hank's balanced salt solution (HBSS) and 50% minimum essential medium with added Earle's salts MM, ICN Biomedicals, Basingstoke, UK) supplemented with 1 mM glutamine and 4.5 mg ml^−1 glucose. Medium was changed every 3-4 days.
Excitotoxic injury was performed as previously described (Pringle et al. (1997), Brain Res., 755, 36-46) with L-Arg3,4 present pre-, during, and post-injury fin treated cultures. Cultures were transferred to SFM+PI with or without 300 μM L-Arg3,4 and allowed to equilibrate for 30 min prior to imaging. […] The medium was then exchanged for SFM+PI plus a glutamate receptor agonist (either 10 mM glutamate, 10 μM NMDA, 10 μM AMPA, or 10 μM kainate) for 3 h. After exposure, the media was again exchanged for SFM+PI containing 300 μM L-Arg3,4. Cultures were then returned to the incubator until they were assessed for cell death in the indicated region of the pyramidal cell layer 24 h post exposure.
Neuronal damage was assessed as described previously (Pringle et al. (1996), Stroke, 27, 2124-2130; Pringle et al. (1997), Brain Res., 755, 36-46). Light transmission images were captured prior to the induction of injury, and PI fluorescence images recorded at the end of the 24 h post-injury recovery period. All images were captured on an inverted Leica DM-IRBE epifluorescence microscope (Milton Keynes, UK) fitted with a 100 W Hg lamp and standard rhodamine optics (excitation 510-560 nm; dichroic mirror […]; emission>590 nm). Images were acquired with a 5×NA 0.12 lens and a cooled Hamamatsu digital camera and digitised at 12 bit resolution for analysis in OpenLab 2.1 (Improvision, Coventry, UK) running on a Macintosh G4/400. The area of the CA1 or CA3 cell layer was determined from the transmission image, and the area of PI fluorescence in that cell layers was measured using the density slice function within OpenLab. Neuronal damage was expressed as a percentage of the area in which PI fluorescence was detected above threshold within a cell layer divided by the total area of that cell layer. Protection was calculated as the difference between the damage for a given well and the average damage in untreated controls divided by the average damage in untreated controls. Groups were compared against corresponding control groups using the two tailed Student's t-test with significance indicated as * for P<0.05, and ** for P<0.01. Data is presented as mean±s.e.mean.

In the case of `N=C(N)NCCCC(N)C(=O)NCCCNCCCCN` [L-Arg3,4, L-arginyl-3,4-spermidine], the “effect on blood pressure, heart rate, respiration, motor function” value [1] is listed as “did not affect blood pressure, heart rate or respiration, or result in adverse motor function”, the “injury (cell death in CA1)” value [2] is listed as 21±5% and the protection [2] is listed as 46%. The “cell death (damage) in CA1” value ([3]; 10 μM AMPA 3 h, 300 μM compound) was 19±4%, the protection ([3]; 10 μM AMPA, CA1) was 53% and the “cell death (damage) in CA1” value ([3]; 10 μM NMDA 3 h, 300 μM compound) was 16±2%. The protection ([3]; 10 μM NMDA, CA1) was 38%, the “cell death (damage) in CA3” value ([3]; 10 μM kainate 3 h, 300 μM compound) was 11±4% and the protection ([3]; 10 μM kainate, CA3) was 61%. The “cell death (damage) in CA1” value ([3]; 10 mM Glut 3 h, 300 μM compound pre-, during, post-injury) was 13±3% and the protection ([3]; 10 mM Glut, CA1) was 41%.
